Patent publication US12152035B2, “Androgen receptor binding molecule and use thereof” (Industrial Technology Research Institute, priority 2020, dated 2024)

Columns and labels:
[1] = system: CWR22RV1 cells; assay: Cytotoxicity assay (AlamarBlue, 72 hours); assay type: cell-based; settings: 72 hours treatment, concentration not given
How it was run: (§1)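 CWR22Rv1 or VCaP cells in RPMI-1640 with 10% FBS were seeded at 1×10^4 cells/well. Next day they were treated with compound, test samples at 100, 10, 1 and 0.1 μM, giving 1% DMSO final. After 72 h, AlamarBlue was added for 4 h, fluorescence was read at Ex/Em 560/590 nm, and % cytotoxicity was calculated.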

[2] = system: VCaP cells; assay: Cytotoxicity assay (AlamarBlue, 72 hours); assay type: cell-based; settings: 72 hours treatment, concentration not given
How it was run: as §1

[3] = system: full-length androgen receptor; assay: Western blot: degradation of full-length androgen receptor in CWR22RV1 cells; assay type: cell-based; settings: overnight
How it was run: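 CWR22Rv1 cells (5×10^5 per well) seeded overnight in RPMI with 10% FBS at 37 °C, 5% CO2, then given fresh medium and compound at various concentrations overnight. Lysates analysed by Western blot for full-length AR and AR-V7, with GAPDH as loading control.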

[4] = system: CWR22Rv1 cells or VCaP cells; assay: Xenograft tumor growth in SCID mice; assay type: in vivo, Male SCID mice; settings: 5 or 30 mg/kg, IP, BID
Description: Mice: Male SCID mice (CB17/Icr-Prkdcscid/IcrIcoCrlBltw, 4-6 weeks old, purchased from BioLASCO Taiwan Co., Ilan, Taiwan.)
The cells were harvested when CWR22Rv1 cells or VCaP cells were cultured to exponential growth phase, and then the cells were washed twice with PBS. Then, for CWR22Rv1 cells, 5×10^6 cells were suspended in 100 μL PBS containing 33% Matrigel to form a cell suspension; for VCaP cells, 3×10^6 cells were suspended in 100 μL PBS containing 50% Matrigel to form a cell suspension cell suspension. Then, the above cell suspension was subcutaneously implanted into the right back of male SCID mice with a 25G needle.
After cell inoculation, when the average tumor volume reached […] or the tumor clearly began to grow, the mice were divided into a vehicle-treated group (n=4-8), 5 mg/kg Compound 1 treated group (n=4-8) and 30 mg/kg Compound 1 treatment group (n=4-8), and administered by intraperitoneal injection (IP), twice daily (BID). The vehicle was 10% N-methylpyrrolidone (NMP, N-Methyl-2-pyrrolidone) and 20% castor oil polyoxyethylene ether (Cremophor EL) in PBS buffer solution. Tumor volume and animal body weight were determined three times a week after dosing.
Tumor size was measured with a caliper and converted to tumor volume (cm^3; V) using the formula: V=0.5×[Length×(Width)^2]
Antitumor activity was expressed as tumor growth inhibition (TGI). […]

[5] = compound concentration 0.1 (unit not given)
[6] = compound concentration 1 (unit not given)
[7] = compound concentration 10 (unit not given)

Compound | Cytotoxicity, CWR22RV1 cells (cell viability %) [1] | Cytotoxicity, VCaP cells (cell viability %) [2] | Degradation ability for full-length androgen receptor (residual rate %) [3, 5] | Degradation ability for full-length androgen receptor (residual rate %) [3, 6] | Degradation ability for full-length androgen receptor (residual rate %) [3, 7] | Increase in tumor size compared to vehicle treatment [4]
Cc1ncsc1-c1ccc(CNC(=O)[C@@H]2C[C@H](O)CN2C(=O)[C@@H](NC(=O)COCCCCOc2ccc(C3CCN(C4=Nn5c(nnc5C(F)(F)F)CC4)CC3)cc2)C(C)(C)C)cc1 [Compound 1, (2S,4S)-1-((S)-3,3-dimethyl-2-(2-(4-(4-(1-(3-(trifluoromethyl)-7,8-dihydro-[1,2,4]triazolo[4,3-b]pyridazin-6-yl)piperidin-4-yl)phenoxy)butoxy)acetamido)butanoyl)-4-hydroxy-N-(4-(4-methylthiazol-5-yl)benzyl)pyrrolidine-2-carboxamide] | +++ (<40% : +++) | +++ (<40% : +++) | + (60-80%: +) | + (60-80%: +) | +++ (<40%: +++) | tends to slow down
O=C1CCC(N2C(=O)c3cccc(N4CCN(C(=O)COCCCCOc5ccc(C6CCN(C7=Nn8c(nnc8C(F)(F)F)CC7)CC6)cc5)CC4)c3C2=O)C(=O)N1 (stereo not shown) [Compound 45, 2-(2,6-dioxopiperidin-3-yl)-4-(4-(2-(4-(4-(1-(3-(trifluoromethyl)-7,8-dihydro-[1,2,4]triazolo[4,3-b]pyridazin-6-yl)piperidin-4-yl)phenoxy)butoxy)acetyl)piperazin-1-yl)isoindoline-1,3-dione] | + (60-80% : +) | +++ (<40% : +++) | − (>80%; −) | ++ (40-60%: ++) | ++ (40-60%: ++) | 
CC1(C)[C@H](NC(=O)c2ccc(C#CC3CCN(c4cccc5c4C(=O)N(C4CCC(=O)NC4=O)C5=O)CC3)cc2)C(C)(C)[C@H]1Oc1ccc2nnc(C(F)(F)F)n2n1 (stereo partly shown) [Compound 46, 4-((1-(2-(2,6-dioxopiperidin-3-yl)-1,3-dioxoisoindolin-4-yl)piperidin-4-yl)ethynyl)-N-((1r,3r)-2,2,4,4-tetramethyl-3-((3-(trifluoromethyl)-[1,2,4]triazolo[4,3-b]pyridazin-6-yl)oxy)cyclobutyl)benzamide] | − (<80% : −) | ++ (40-60% : ++) | ++ (40-60%: ++) | ++ (40-60%: ++) | − (>80%; −) | 
O=C1CCC(N2C(=O)c3cccc(N4CCN(c5ccc(C(=O)N[C@H]6CC[C@H](Oc7ccc8nnc(C(F)(F)F)n8n7)CC6)cn5)CC4)c3C2=O)C(=O)N1 (stereo partly shown) [Compound 47, 6-(4-(2-(2,6-dioxopiperidin-3-yl)-1,3-dioxoisoindolin-4-yl)piperazin-1-yl)-N-((1r,4r)-4-((3-(trifluoromethyl)-[1,2,4]triazolo[4,3-b]pyridazin-6-yl)oxy)cyclohexyl)nicotinamide] | − (<80% : −) | ++ (40-60% : ++) | ++ (40-60%: ++) | +++ (<40%: +++) | + (60-80%: +) | 
O=C1CCC(N2C(=O)c3cccc(N4CCC(CN5CCN(c6ccc(C(=O)N[C@H]7CC[C@H](Oc8ccc9nnc(C(F)(F)F)n9n8)CC7)cn6)CC5)CC4)c3C2=O)C(=O)N1 (stereo partly shown) [Compound 48, 6-(4-((1-(2-(2,6-dioxopiperidin-3-yl)-1,3-dioxoisoindolin-4-yl)piperidin-4-yl)methyl)piperazin-1-yl)-N-((1r,4r)-4-((3-(trifluoromethyl)-[1,2,4]triazolo[4,3-b]pyridazin-6-yl)oxy)cyclohexyl)nicotinamide] | − (<80% : −) | − (<80% : −) | − (>80%; −) | − (>80%; −) | − (>80%; −) | 
CC1(C)C(NC(=O)c2ccc(C#CC3CCN(C(=O)CNc4cccc5c4C(=O)N(C4CCC(=O)NC4=O)C5=O)CC3)cc2)C(C)(C)C1Oc1ccc2nnc(C(F)(F)F)n2n1 (stereo not shown) [Compound 49, 4-((1-((2-(2,6-dioxopiperidin-3-yl)-1,3-dioxoisoindolin-4-yl)glycyl)piperidin-4-yl)ethynyl)-N-((1r,3r)-2,2,4,4-tetramethyl-3-((3-(trifluoromethyl)-[1,2,4]triazolo[4,3-b]pyridazin-6-yl)oxy)cyclobutyl)benzamide] | ++ (40-60% : ++) | +++ (<40% : +++) | ++ (40-60%: ++) | ++ (40-60%: ++) | − (>80%; −) | 
O=C1CCC(N2C(=O)c3cccc(NCC(=O)N4CCC(N5CCC(C#Cc6ccc(C(=O)Nc7ccc(C8CCN(C9=Nn%10c(nnc%10C(F)(F)F)CC9)CC8)cc7)nc6)CC5)CC4)c3C2=O)C(=O)N1 (stereo not shown) [Compound 51, 5-((1′-((2-(2,6-dioxopiperidin-3-yl)-1,3-dioxoisoindolin-4-yl)glycyl)-[1,4′-bipiperidin]-4-yl)ethynyl)-N-(4-(1-(3-(trifluoromethyl)-7,8-dihydro-[1,2,4]triazolo[4,3-b]pyridazin-6-yl)piperidin-4-yl)phenyl)picolinamide] | +++ (<40% : +++) | +++ (<40% : +++) | − (>80%; −) | − (>80%; −) | + (60-80%: +) | 
CC1(C)C(NC(=O)c2ccc(C#CC3CCN(C4CCN(C(=O)CNc5cccc6c5C(=O)N(C5CCC(=O)NC5=O)C6=O)CC4)CC3)cc2)C(C)(C)C1OC1=Nn2c(nnc2C(F)(F)F)CC1 (stereo not shown) [Compound 52, 4-((1′-((2-(2,6-dioxopiperidin-3-yl)-1,3-dioxoisoindolin-4-yl)glycyl)-[1,4′-bipiperidin]-4-yl)ethynyl)-N-((1r,3r)-2,2,4,4-tetramethyl-3-((3-(trifluoromethyl)-7,8-dihydro-[1,2,4]triazolo[4,3-b]pyridazin-6-yl)oxy)cyclobutyl)benzamide] | +++ (<40% : +++) | +++ (<40% : +++) | − (>80%; −) | ++ (40-60%: ++) | ++ (40-60%: ++) | 
Cc1ncsc1-c1ccc(CNC(=O)[C@@H]2C[C@H](O)CN2C(=O)[C@@H](NC(=O)COCCCCOc2ccc(C(=O)NC3C(C)(C)C(Oc4ccc5nnc(C(F)(F)F)n5n4)C3(C)C)cc2)C(C)(C)C)cc1 (stereo partly shown) [Compound 53, 1-(3,3-dimethyl-2-(2-(4-(4-(((1r,3r)-2,2,4,4-tetramethyl-3-((3-(trifluoromethyl)-[1,2,4]triazolo[4,3-b]pyridazin-6-yl)oxy)cyclobutyl)carbamoyl)phenoxy)butoxy)acetamido)butanoyl)-4-hydroxy-N-(4-(4-methylthiazol-5-yl)benzyl)pyrrolidine-2-carboxamide] | +++ (<40% : +++) | +++ (<40% : +++) | − (>80%; −) | +++ (<40%: +++) | +++ (<40%: +++) | 
